From publication PMC11983575, “Study on the synthesis and biological activity of kojic acid triazol thiosemicarbazide Schiff base derivatives” (Journal of Enzyme Inhibition and Medicinal Chemistry, 2025)

Columns and labels:
[1] = ABTS radical cation scavenging activity assay; details: 734 nm; read-out: ABTS+/IC50 (μM) ± SD
Procedure: ABTS free radical scavenging activity was performed according to the procedure described by Zhang et al.[40] Test solution of ABTS decolourisation assay was prepared by mixing 2.45 mM potassium persulfate and 7 mM ABTS at 8:12 volume/volume ratio. The working solution was kept in the dark at room temperature for 12–18 h. Before ABTS radical scavenging test, the ABTS test solution was diluted with DMSO to absorbance of 0.7 (±0.02) at 734 nm. One millilitre of diluted ABTS test solution was added to 10 μl of DMSO or test sample. After initial mixing, the working solution was kept in the dark at room temperature for 2–6 min, and the absorbance was measured at 734 nm. This test was carried out in triplicate. DMSO was used as a control. Ascorbic acid was used as antioxidant standard for comparison of the activity. The absorbance of test samples was calculated by the following formula. ABTS scavenging ability %=absorbance of standard−absorbance of sample/absorbance of standard×100.

[2] = target: mushroom tyrosinase (Agaricus bisporus, UniProt C7FF04); assay: In vitro mushroom tyrosinase inhibition (L-DOPA substrate); assay type: biochemical; details: 475 nm, read-out: IC50 (μM) ± SD, inhibitory tyrosinase activity
Procedure: The mushroom tyrosinase inhibitory activity was determined according to previous described method. Briefly, 168 μl of phosphate buffer (0.1 M, pH 6.8), 10 μl of mushroom tyrosinase (0.5 mg/ml, Sigma Chemical, St. Louis, MO) and 2 μl of the inhibitor solution were placed in the wells of a 96-well micro plate. After pre-incubation for 20 min at 37 °C, 20 μl of 2.0 mg/ml L-DOPA (3,4-dihydroxyphenylalanine, Sigma Chemical, St. Louis, MO) was added and the enzyme activity was measured at 475 nm every 60 s for 180 s in a Microplate Reader (Bio-Rad Laboratories, Inc., Hercules, CA). Kojic acid and phosphate buffer were respectively used as positive and negative control. The extent of inhibition by the test compounds was expressed as the percentage of concentration necessary to achieve 50% inhibition (IC50). The percentage of inhibition was calculated as follows: inhibitory rate (%) = [Ac − At)/Ac] × 100. Ac is the absorbance of the negative control and At is the absorbance of the test compound. Each concentration was analysed in three independent experiments run in triplicate. The IC50 values were determined by the data analysis software GraphPad Prism 8 (La Jolla, CA).
The tyrosinase inhibition measurements of compounds 6a–6x were carried out using L-DOPA as substrate. Kojic acid was selected as a positive control compound. […]. […] Moreover, inhibitory activity of compound with hydroxyl group at papa position is better than the inhibitory activity of compound with hydroxyl group at meta position, and inhibitory activity of compound with hydroxyl group at meta position is better than the inhibitory activity of compound with hydroxyl group at ortho position. […]. […] In addition, with the increase of atomic radius, the inhibitory activity gradually decreases. (3) The inhibitory activity of alkoxy substituted compound is better than that of alkyl substituted compound. (4) Comparing the tyrosinase inhibitory activity of compounds with halogen atom (6b–6d, 6q–6s) and compounds with methyl or methoxy (6e–6f, 6t–6u), when the hydrogen (R^2) was replaced by the methyl (R^2), the inhibitory activity was decreased.

[3] = DPPH free radical scavenging activity assay; details: DPPH 150 μM, 30 min, 517 nm; read-out: DPPH/IC50 (μM) ± SD
Procedure: The anti-oxidation effect on DPPH radical was determined by a slightly modified version of a previously described DPPH radical scavenging assay. Reaction mixtures consisted of 100 μl of DPPH (150 μM), 20 μl of increasing concentration of test compounds and the volume was adjusted to 200 μl in each well with DMSO. The assay solution was then incubated at room temperature (25 °C) for 30 min in the dark. After the incubation, absorbance at 517 nm was measured by using UV-2600 spectrophotometer. The experiments were undertaken in triplicate. DMSO was used as a control. Ascorbic acid was used as antioxidant standard for comparison of the activity. The calculation of DPPH radical scavenging activity was followed by this formula: DPPH radical scavenging activity %=absorbance of standard−absorbance of sample/Absorbance of standard×100

mushroom tyrosinase, sequence (C7FF04 1-392): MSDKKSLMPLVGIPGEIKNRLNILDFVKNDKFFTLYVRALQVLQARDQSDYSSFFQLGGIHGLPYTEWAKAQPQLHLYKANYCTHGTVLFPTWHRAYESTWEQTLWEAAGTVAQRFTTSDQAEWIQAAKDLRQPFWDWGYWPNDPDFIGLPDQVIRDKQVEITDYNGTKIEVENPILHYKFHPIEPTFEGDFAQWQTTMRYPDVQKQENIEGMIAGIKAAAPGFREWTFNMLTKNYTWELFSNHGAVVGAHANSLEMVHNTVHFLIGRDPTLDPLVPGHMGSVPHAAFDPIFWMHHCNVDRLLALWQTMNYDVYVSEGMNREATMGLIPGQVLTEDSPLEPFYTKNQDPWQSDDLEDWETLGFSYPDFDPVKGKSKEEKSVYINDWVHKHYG

2-(1-(4-((1-((5-Hydroxy-4-oxo-4H-pyran-2-yl)methyl)-1H-1,2,3-triazol-5-yl)methoxy)-3-methylphenyl)ethylidene)hydrazinecarbothioamide [Compound 6x]
IC50 [1]: 19.94 ± 0.081 µM | IC50 [2]: 2.35 ± 0.021 µM | IC50 [3]: 159.2 ± 0.061 µM

2-(3-((1-((5-Hydroxy-4-oxo-4H-pyran-2-yl)methyl)-1H-1,2,3-triazol-5-yl)methoxy)benzylidene)hydrazinecarbothioamide [Compound 6l]
IC50 [1]: 40.23 ± 0.071 µM | IC50 [2]: 5.45 ± 0.077 µM | IC50 [3]: 81.67 ± 0.073 µM

2-(4-((1-((5-Hydroxy-4-oxo-4H-pyran-2-yl)methyl)-1H-1,2,3-triazol-5-yl)methoxy)-3-methoxybenzylidene)hydrazinecarbothioamide [Compound 6n]
IC50 [1]: 44.4 ± 0.068 µM | IC50 [2]: 8.4 ± 0.009 µM | IC50 [3]: 176.2 ± 0.061 µM

2-(4-((1-((5-Hydroxy-4-oxo-4H-pyran-2-yl)methyl)-1H-1,2,3-triazol-5-yl)methoxy)-3-methylbenzylidene)hydrazinecarbothioamide [Compound 6o]
IC50 [1]: 17.95 ± 0.048 µM | IC50 [2]: 12.38 ± 0.014 µM | IC50 [3]: 193.9 ± 0.022 µM

2-(4-((1-((5-Hydroxy-4-oxo-4H-pyran-2-yl)methyl)-1H-1,2,3-triazol-5-yl)methoxy)benzylidene)hydrazinecarbothioamide [Compound 6m]
IC50 [1]: 36.17 ± 0.018 µM | IC50 [2]: 1.58 ± 0.092 µM | IC50 [3]: 195 ± 0.038 µM
